The target in data set [1] is NACHT, LRR and PYD domains-containing protein 3 (Mus musculus, UniProt Q8R4B8). The data set is described as follows: Inhibition of NLRP3 in mouse J774.A1 cells assessed as reduction IL-1beta release by ELISA. In kind it is cell-based.
For data set [2], the target named is NLRP3-NEK7 (Mus musculus) (UniProt Q8R4B8+Q9ES74). The data set is described as follows: Inhibition of NLRP3/NEK7 protein-protein interaction in LPS/nigericin-induced mouse J774.A1 cells incubated for 6 hrs by coimmunoprecipitation analysis. The class given is cell-based.
Data set [3] has as its target T1, Apoptosis-associated speck-like protein containing a CARD (Mus musculus) (UniProt Q9EPB4).
T1 sequence (whole entry): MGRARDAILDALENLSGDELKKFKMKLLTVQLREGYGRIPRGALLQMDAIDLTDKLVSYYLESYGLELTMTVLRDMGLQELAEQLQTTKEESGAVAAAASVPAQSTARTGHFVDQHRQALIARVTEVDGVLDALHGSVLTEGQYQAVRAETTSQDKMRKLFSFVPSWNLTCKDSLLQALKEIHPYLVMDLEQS
The data set is described as follows: Inhibition of LPS/nigericin-induced ASC oligomerization in mouse J774.A1 cells at 0.8 to 3.2 uM by immunoblot analysis. In kind it is cell-based. The following applies: dose 0.8-3.2 µM. Background: A western blot detects proteins with antibodies after separation by electrophoresis.

The next data set deals with J774.A1. As to the kind of experiment: Cytotoxicity against mouse J774.A1 cells at 0.4 to 6.4 uM incubated for 24 hrs by CCK-8 assay. In kind it is toxicity, cell-based. The following applies: j774.a1, 24 h, dose 0.4-6.4 µM.
The target of data set [4] is NACHT, LRR and PYD domains-containing protein 3 (Mus musculus) (UniProt Q8R4B8). As to the kind of experiment: Inhibition of LPS/nigericin-induced NLRP3 oligomerization in mouse J774.A1 cells at 3.2 uM by SDS-PAGE analysis. In kind it is cell-based.
Data set [5] concerns the target Nlrp3/Pycard (Mus musculus) (UniProt Q8R4B8+Q9EPB4). As to the kind of experiment: Inhibition of NLRP3/ASC protein-protein interaction in LPS/nigericin-induced mouse J774.A1 cells at 3 uM by coimmunoprecipitation analysis. In kind it is cell-based.
The target in data set [6] is NACHT, LRR and PYD domains-containing protein 3 (Mus musculus) (UniProt Q8R4B8). The data set is described as follows: Inhibition of NLRP3 inflammasome activation in LPS/nigericin-primed mouse BMDM cells assessed as inhibition of ASC speck formation incubated for 1 hr by DAPI staining based immunofluorescence analysis. In kind it is cell-based.

pIC50: −log10 of the molar value. Activity calls are given as the source filed them. The calls are words filed in the database; no cut-off is given here.

Chain of NACHT, LRR and PYD domains-containing protein 3 (Q8R4B8 whole entry, the tested form may be a part): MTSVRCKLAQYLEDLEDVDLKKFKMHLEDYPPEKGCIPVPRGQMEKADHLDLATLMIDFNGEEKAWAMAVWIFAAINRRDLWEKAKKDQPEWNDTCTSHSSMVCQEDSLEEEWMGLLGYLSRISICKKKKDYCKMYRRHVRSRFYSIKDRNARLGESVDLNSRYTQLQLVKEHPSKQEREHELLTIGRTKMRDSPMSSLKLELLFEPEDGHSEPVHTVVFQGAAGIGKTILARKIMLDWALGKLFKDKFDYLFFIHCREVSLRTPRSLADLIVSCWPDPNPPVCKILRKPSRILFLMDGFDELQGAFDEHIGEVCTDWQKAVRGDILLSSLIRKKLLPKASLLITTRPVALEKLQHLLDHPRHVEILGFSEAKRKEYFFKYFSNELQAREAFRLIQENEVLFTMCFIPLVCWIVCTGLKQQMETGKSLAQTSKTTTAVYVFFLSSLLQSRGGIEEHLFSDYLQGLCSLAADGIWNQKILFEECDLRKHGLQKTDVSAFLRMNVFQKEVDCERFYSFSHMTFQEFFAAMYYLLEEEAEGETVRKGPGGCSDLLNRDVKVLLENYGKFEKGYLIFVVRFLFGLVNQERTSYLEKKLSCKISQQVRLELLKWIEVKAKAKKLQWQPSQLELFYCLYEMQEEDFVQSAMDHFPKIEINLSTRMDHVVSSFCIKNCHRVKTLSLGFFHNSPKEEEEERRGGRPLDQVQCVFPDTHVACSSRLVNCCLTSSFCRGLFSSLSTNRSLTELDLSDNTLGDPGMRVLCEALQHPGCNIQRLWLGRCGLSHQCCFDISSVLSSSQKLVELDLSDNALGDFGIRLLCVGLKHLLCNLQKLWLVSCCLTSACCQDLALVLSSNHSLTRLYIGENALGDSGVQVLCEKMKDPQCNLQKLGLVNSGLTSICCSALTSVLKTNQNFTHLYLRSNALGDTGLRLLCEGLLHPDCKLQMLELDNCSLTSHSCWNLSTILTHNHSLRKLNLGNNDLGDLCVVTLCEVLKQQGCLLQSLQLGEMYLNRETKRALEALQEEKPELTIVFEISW
Chain of NACHT, LRR and PYD domains-containing protein 3 (Mus musculus) (Q8R4B8 whole entry, the tested form may be a part): as above
Chain of Nlrp3/Pycard (Mus musculus) (Q8R4B8 whole entry, looked up, one chain of several, the tested form may be a part): as the sequence (Q8R4B8 whole entry, the tested form may be a part) above
Chain of NLRP3-NEK7 (Mus musculus) (Q8R4B8 whole entry, looked up): as the sequence (Q8R4B8 whole entry, the tested form may be a part) above
Chain of NLRP3-NEK7 (Mus musculus) (Q9ES74 whole entry, looked up): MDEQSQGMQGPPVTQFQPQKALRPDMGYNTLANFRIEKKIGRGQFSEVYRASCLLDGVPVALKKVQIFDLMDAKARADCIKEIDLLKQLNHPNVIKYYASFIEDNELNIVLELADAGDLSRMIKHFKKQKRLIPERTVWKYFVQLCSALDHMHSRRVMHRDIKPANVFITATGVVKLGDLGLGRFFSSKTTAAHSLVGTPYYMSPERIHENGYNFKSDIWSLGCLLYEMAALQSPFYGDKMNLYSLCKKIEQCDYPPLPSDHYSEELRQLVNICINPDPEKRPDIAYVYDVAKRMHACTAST

Turning to `CC[C@H](NC(=O)c1c(C)c(-c2cccc(F)c2)nc2ccc(Br)cc12)c1ccccc1`, the pIC50 in data set [1] was 5.92. Take `CC[C@H](NC(=O)c1c(C)c(-c2cccc(F)c2)nc2cc(OC)ccc12)c1ccccc1`: in data set [1], the pIC50 is 5.92.

On to `CC[C@H](NC(=O)c1ccnc2ccccc12)c1ccccc1`, for which the pIC50 in data set [1] was 3.90. Still for that read-out and setting: as for `CC[C@H](NC(=O)c1c(C)c(-c2cccc(F)c2)nc2c(Cl)cccc12)c1ccccc1`, the figure is 6.15.

`CC[C@H](NC(=O)c1c(C)c(-c2cccc(F)c2)nc2ccccc12)c1ccccc1`: the inhibition result in data set [2] was “inactive”. The inhibition result in data set [3], in data set [4], in data set [5] and in data set [6] was “Active” in each case. The Activity entry with J774.A1 was “Non-toxic”. Besides, in data set [1], the pIC50 is 6.23.

Consider `CC[C@H](NC(=O)c1c(C)c(-c2ccccc2)nc2ccccc12)c1ccccc1` [SB-222200], for which the pIC50 in data set [1] is 5.90. For `CC[C@H](NC(=O)c1c(C)c(-c2cccc(F)c2)nc2cc(Cl)ccc12)c1ccccc1`, in data set [1], the pIC50 is 6.04. Still for that read-out and setting: the same measure for `CC[C@H](NC(=O)c1c(C)c(-c2cccc(F)c2)nc2c(NC(C)=O)cccc12)c1ccccc1`: 6.14; for `O=C(N[C@@H]1CCc2ccccc21)c1cc(-c2ccccc2)nc2ccccc12`: 5.10.

With `Cc1ccccc1CNC(=O)c1cc(-c2ccccc2)nc2ccccc12`, the negative-log IC50 (pIC50) in data set [1] was 5.37. Still for that read-out and setting: the same measure for `CC[C@H](NC(=O)c1cc(C)nc2ccccc12)c1ccccc1`: 4.07.

Consider `CC[C@H](NC(=O)c1c(C)c(-c2cccc(F)c2)nc2c(NS(=O)(=O)C3CC3)cccc12)c1ccccc1`, for which, in data set [1], the pIC50 is 6.38. On to `CCN(CC)CCCC(C)Nc1ccnc2cc(Cl)ccc12` (stereo not given) [CHLOROQUINE], for which, in data set [1], the pIC50 is 4.06.

Consider `CC[C@@H](NC(=O)c1cc(-c2ccccc2)nc2ccccc12)c1ccccc1`, for which, in data set [1], the pIC50 is 5.68. For the molecule `O=C(NCCc1ccccc1)c1cc(-c2ccccc2)nc2ccccc12`, the pIC50 in data set [1] was 4.15. Same read-out and setting: the same measure for `CC[C@H](NC(=O)c1c(C)c(-c2cccc(F)c2)nc2ccc(Cl)cc12)c1ccccc1`: 6.09; for `Cc1ccc(O)cc1NC(=O)c1cc(-c2ccccc2)nc2ccccc12`: 5.15. Same read-out and setting: as for `COC(=O)[C@@H](NC(=O)c1cc(-c2ccccc2)nc2ccccc12)c1ccccc1`, the figure is 5.52; as for `CC[C@H](NC(=O)c1c(C)c(-c2cccc(F)c2)nc2ccc([N+](=O)[O-])cc12)c1ccccc1`, 6.03.

As usually defined, the pIC50 is the negative decadic logarithm of the IC50, by convention in mol/L.

These data come from ChEMBL document CHEMBL6134828, “Discovery, synthesis, and biological mechanism evaluation of novel quinoline derivatives as potent NLRP3 inhibitors” (Eur J Med Chem, 2025).
